Data as given in patent publication US9266883B2, “Ring-fused bicyclic pyridyl derivatives as FGFR4 inhibitors” (Novartis AG, priority 2013, dated 2016).
Structures can show the parent of a compound that is named as a salt.

Key:
FGFR3 (411-806) = FGFR3 (411-806) (Homo sapiens (Human), UniProt P22607); experiment: In vitro biochemical assay for FGFR3
Tel-FGFR4 = Tel-FGFR4 (Homo sapiens (Human), UniProt P22455); experiment: In vitro cellular kinase assay for FGFR4 (BaF3-Tel-FGFR4 cells, MSD capture ELISA of tyrosine phosphorylation); assay type: cell-based; settings: BaF3-Tel-FGFR4 cells, 1 hour incubation; read-out: Cellular BaF3 FGFR4 IC50
Sequence of Tel-FGFR4 (P22455 other isoform, or with tags, fused parts or gaps): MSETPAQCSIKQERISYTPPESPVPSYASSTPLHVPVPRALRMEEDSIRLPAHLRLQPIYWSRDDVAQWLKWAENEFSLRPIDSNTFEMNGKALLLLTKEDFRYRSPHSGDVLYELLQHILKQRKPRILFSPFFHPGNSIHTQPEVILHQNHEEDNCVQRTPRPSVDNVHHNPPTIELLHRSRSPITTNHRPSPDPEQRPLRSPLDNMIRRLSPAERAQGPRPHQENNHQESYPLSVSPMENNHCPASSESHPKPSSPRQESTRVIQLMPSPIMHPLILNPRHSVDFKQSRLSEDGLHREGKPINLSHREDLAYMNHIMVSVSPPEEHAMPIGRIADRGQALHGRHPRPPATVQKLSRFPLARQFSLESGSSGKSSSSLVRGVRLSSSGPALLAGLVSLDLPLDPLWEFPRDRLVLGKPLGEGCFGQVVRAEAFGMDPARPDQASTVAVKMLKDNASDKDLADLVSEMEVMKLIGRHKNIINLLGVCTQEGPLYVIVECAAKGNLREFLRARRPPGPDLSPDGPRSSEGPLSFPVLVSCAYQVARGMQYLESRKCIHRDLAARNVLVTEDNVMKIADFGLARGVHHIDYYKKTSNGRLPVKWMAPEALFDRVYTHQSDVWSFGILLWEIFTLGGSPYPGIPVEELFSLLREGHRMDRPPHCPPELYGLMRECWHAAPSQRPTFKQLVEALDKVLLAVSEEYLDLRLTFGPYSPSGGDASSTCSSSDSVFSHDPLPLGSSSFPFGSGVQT

FGFR1 (407-822) = FGFR1 (407-822) (Homo sapiens (Human), UniProt P11362); experiment: In vitro biochemical assay for FGFR1
Sequence of FGFR1 (407-822) (P11362 407-822): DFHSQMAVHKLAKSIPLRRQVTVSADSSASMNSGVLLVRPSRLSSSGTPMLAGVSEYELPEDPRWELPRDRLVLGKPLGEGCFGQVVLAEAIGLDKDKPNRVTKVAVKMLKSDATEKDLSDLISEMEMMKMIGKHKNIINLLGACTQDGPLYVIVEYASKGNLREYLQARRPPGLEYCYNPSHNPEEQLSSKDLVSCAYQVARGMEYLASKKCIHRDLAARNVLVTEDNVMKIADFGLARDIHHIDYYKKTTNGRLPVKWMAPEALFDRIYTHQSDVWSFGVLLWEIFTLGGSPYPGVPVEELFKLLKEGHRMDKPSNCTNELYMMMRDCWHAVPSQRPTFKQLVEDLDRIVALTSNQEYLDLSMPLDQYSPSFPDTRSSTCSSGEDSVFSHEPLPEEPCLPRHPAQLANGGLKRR

[1] = tested on: HuH-7 hepatocellular carcinoma cells; experiment: CellTiter Glo (CTG) Assay; settings: Homo sapiens, Huh-7, 72 h, read-out: HUH7 proliferation (nM) CTG
FGFR2 (406-821) = FGFR2 (406-821) (Homo sapiens (Human), UniProt P21802); experiment: In vitro biochemical assay for FGFR2
Sequence of FGFR2 (406-821) (P21802 406-821): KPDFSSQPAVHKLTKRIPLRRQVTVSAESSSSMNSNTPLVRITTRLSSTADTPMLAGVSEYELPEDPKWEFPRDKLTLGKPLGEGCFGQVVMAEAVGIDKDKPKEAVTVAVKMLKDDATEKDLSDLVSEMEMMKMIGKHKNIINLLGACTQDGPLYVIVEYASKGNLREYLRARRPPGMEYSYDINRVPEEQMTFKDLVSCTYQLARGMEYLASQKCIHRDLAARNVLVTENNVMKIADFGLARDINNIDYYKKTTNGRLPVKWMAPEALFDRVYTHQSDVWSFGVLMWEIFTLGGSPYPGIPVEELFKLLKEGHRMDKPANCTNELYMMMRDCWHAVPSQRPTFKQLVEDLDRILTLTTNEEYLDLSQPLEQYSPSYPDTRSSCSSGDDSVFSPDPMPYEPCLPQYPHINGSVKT

[2] = molecular target: FGFR4 (GST-FGFR4(388-802)) (Homo sapiens (Human), UniProt P22455); experiment: In-vitro biochemical kinase assay for FGFR4 (Caliper microfluidic mobility shift); settings: read-out: Biochemical FGFR4 IC50
Sequence of FGFR4 (GST-FGFR4(388-802)) (P22455 388-802): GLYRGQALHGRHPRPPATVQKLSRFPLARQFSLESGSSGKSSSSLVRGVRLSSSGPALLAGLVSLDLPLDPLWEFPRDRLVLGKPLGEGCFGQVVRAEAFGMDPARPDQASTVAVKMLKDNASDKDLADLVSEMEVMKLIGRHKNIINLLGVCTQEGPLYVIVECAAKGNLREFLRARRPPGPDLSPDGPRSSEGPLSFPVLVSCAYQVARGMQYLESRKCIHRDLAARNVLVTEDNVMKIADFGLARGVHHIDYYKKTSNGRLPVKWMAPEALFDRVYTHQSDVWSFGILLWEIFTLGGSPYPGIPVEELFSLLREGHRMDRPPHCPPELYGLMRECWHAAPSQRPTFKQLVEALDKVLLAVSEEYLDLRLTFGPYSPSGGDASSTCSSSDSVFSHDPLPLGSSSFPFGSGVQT

[3] = tested on: HuH-7 hepatocellular carcinoma cells; experiment: Methylene Blue Staining Proliferation Assay (MBS); settings: Homo sapiens, Huh-7, 72 h, read-out: HUH7 proliferation (nM) MBS

Sequence of FGFR3 (411-806) (P22607 411-806): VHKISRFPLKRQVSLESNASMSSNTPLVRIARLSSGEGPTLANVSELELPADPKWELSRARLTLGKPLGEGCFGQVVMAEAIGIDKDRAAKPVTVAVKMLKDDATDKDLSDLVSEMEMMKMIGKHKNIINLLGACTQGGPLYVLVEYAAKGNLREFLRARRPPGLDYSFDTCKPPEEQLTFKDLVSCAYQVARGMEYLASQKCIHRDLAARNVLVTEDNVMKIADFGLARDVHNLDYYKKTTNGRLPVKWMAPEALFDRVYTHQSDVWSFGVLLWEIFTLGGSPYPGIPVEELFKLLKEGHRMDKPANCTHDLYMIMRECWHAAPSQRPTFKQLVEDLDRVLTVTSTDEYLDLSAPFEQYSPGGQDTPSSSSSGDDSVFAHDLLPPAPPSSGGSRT

SMILES | IC50 (FGFR3 (411-806)) | IC50 (Tel-FGFR4) | IC50 (FGFR1 (407-822)) | IC50 [1] | IC50 (FGFR2 (406-821)) | IC50 [2] | IC50 [3]
CN1CCN(Cc2cc3c(nc2C=O)N(C(=O)Nc2cc(NC45CC(C4)C5)c(C#N)cn2)CCC3)C(=O)C1 [Example 237, N-(4-(bicyclo[1.1.1]pentan-1-ylamino)-5-cyanopyridin-2-yl)-7-formyl-6-((4-methyl-2-oxopiperazin-1-yl)methyl)-3,4-dihydro-1,8-naphthyridine-1(2H)-carboxamide] | > 10000 nM | 19 nM | > 10000 nM | 18 nM | > 10000 nM | 1.9 nM | –
O=Cc1ccc2c(n1)N(C(=O)Nc1ccc(Cl)cn1)CCC2 [Example 4, N-(5-chloropyridin-2-yl)-7-formyl-3,4-dihydro-1,8-naphthyridine-1(2H)-carboxamide] | – | – | – | – | – | – | > 3000 nM
CN1CCOC(CNc2cc(NC(=O)N3CCCc4cc(C(F)F)c(C=O)nc43)ncc2C#N)C1 (racemic) [Example 161, N-(5-cyano-4-(((4-methylmorpholin-2-yl)methyl)amino)pyridin-2-yl)-6-(difluoromethyl)-7-formyl-3,4-dihydro-1,8-naphthyridine-1(2H)-carboxamide] | > 10000 nM | 17.3 nM | > 10000 nM | 200 nM | > 10000 nM | 2.5 nM | 126 nM
CC(C)Oc1cc(NC(=O)N2CCCc3cc(C4CCNCC4)c(C=O)nc32)ncc1C#N [Example 265, N-(5-cyano-4-isopropoxypyridin-2-yl)-7-formyl-6-(piperidin-4-yl)-3,4-dihydro-1,8-naphthyridine-1(2H)-carboxamide] | > 10000 nM | 87 nM | > 10000 nM | 404 nM | > 10000 nM | 3.5 nM | –
COC[C@@H](C)Oc1cc(NC(=O)N2CCCc3cc(CN4CCN(C)CC4=O)c(C=O)nc32)ncc1C#N [Example 205, (R)-N-(5-cyano-4-((1-methoxypropan-2-yl)oxy)pyridin-2-yl)-7-formyl-6-((4-methyl-2-oxopiperazin-1-yl)methyl)-3,4-dihydro-1,8-naphthyridine-1(2H)-carboxamide] | > 10000 nM | – | > 10000 nM | – | > 10000 nM | – | 14 nM
COCCNc1cc(NC(=O)N2CCCc3cc(-c4cnn(C)c4)c(C=O)nc32)ncc1C#N [Example 251, N-(5-cyano-4-((2-methoxyethyl)amino)pyridin-2-yl)-7-formyl-6-(1-methyl-1H-pyrazol-4-yl)-3,4-dihydro-1,8-naphthyridine-1(2H)-carboxamide] | – | 12.9 nM | – | 1340 nM | – | – | 264 nM
COCCNc1cc(NC(=O)N2CCCc3cc(CN4CCNCC4=O)c(C=O)nc32)ncc1C#N [Example 110, N-(5-cyano-4-((2-methoxyethyl)amino)pyridin-2-yl)-7-formyl-6-((2-oxopiperazin-1-yl)methyl)-3,4-dihydro-1,8-naphthyridine-1(2H)-carboxamide hydrochloride] | > 10000 nM | 8.6 nM | > 10000 nM | 59.7 nM | > 10000 nM | 1.4 nM | 46 nM
CC(=O)N1CCN(Cc2cc3c(nc2C=O)N(C(=O)Nc2cc(OC(C)C)c(C#N)cn2)CCC3)CC1 [Example 134, 6-((4-acetylpiperazin-1-yl)methyl)-N-(5-cyano-4-isopropoxypyridin-2-yl)-7-formyl-3,4-dihydro-1,8-naphthyridine-1(2H)-carboxamide] | > 10000 nM | 20.5 nM | > 10000 nM | 450 nM | > 10000 nM | 1.9 nM | –
COCCNc1cc(NC(=O)N2c3nc(C=O)c(CN4CCN(C)CC4=O)cc3CC[C@@H]2C)ncc1C#N [Example 228, (S)-N-(5-cyano-4-((2-methoxyethyl)amino)pyridin-2-yl)-7-formyl-2-methyl-6-((4-methyl-2-oxopiperazin-1-yl)methyl)-3,4-dihydro-1,8-naphthyridine-1(2H)-carboxamide] | > 10000 nM | 6.2 nM | > 10000 nM | 62 nM | > 10000 nM | 0.6 nM | –
COCCNc1cc(NC(=O)N2CCCc3cc(CN(CCN(C)C)C(C)=O)c(C=O)nc32)ncc1C#N [Example 143, N-(5-cyano-4-((2-methoxyethyl)amino)pyridin-2-yl)-6-((N-(2-(dimethylamino)ethyl)acetamido)methyl)-7-formyl-3,4-dihydro-1,8-naphthyridine-1(2H)-carboxamide] | > 10000 nM | 16.7 nM | > 10000 nM | 171 nM | > 10000 nM | 2 nM | 104 nM
CC(C)n1cnc2cnc(NC(=O)N3CCCc4cc(CN5CCN(C)CC5=O)c(C=O)nc43)cc21 [Example 216, 7-formyl-N-(1-isopropyl-1H-imidazo[4,5-c]pyridin-6-yl)-6-((4-methyl-2-oxopiperazin-1-yl)methyl)-3,4-dihydro-1,8-naphthyridine-1(2H)-carboxamide] | > 10000 nM | – | > 10000 nM | > 3000 nM | > 10000 nM | – | > 1000 nM
COC[C@@H](C)Oc1cc(NC(=O)N2CCCc3cc(CN4C(=O)OC[C@@H]4C)c(C=O)nc32)ncc1C#N [Example 115, N-(5-cyano-4-(((R)-1-methoxypropan-2-yl)oxy)pyridin-2-yl)-7-formyl-6-(((S)-4-methyl-2-oxooxazolidin-3-yl)methyl)-3,4-dihydro-1,8-naphthyridine-1(2H)-carboxamide] | – | 3.9 nM | – | 17.5 nM | – | 0.2 nM | 29 nM
COCCNc1cc(NC(=O)N2CCCc3cc(CN4CCN(C)CC4=O)c(C=O)nc32)ncc1C#N [Example 83, N-(5-cyano-4-((2-methoxyethyl)amino)pyridin-2-yl)-7-formyl-6-((4-methyl-2-oxopiperazin-1-yl)methyl)-3,4-dihydro-1,8-naphthyridine-1(2H)-carboxamide] | – | – | – | 60.9 nM | – | – | 12 nM
CC(C)Oc1cc(NC(=O)N2CCCc3cc(CN(C)C(=O)CO)c(C=O)nc32)ncc1C#N [Example 141, N-(5-cyano-4-isopropoxypyridin-2-yl)-7-formyl-6-((2-hydroxy-N-methylacetamido)methyl)-3,4-dihydro-1,8-naphthyridine-1(2H)-carboxamide] | > 10000 nM | 3.9 nM | > 10000 nM | 36 nM | > 10000 nM | – | 43 nM
COCCNc1cc(NC(=O)N2CCCc3cc(CO)c(C=O)nc32)ncc1C(F)(F)F [Example 84, 7-formyl-6-(hydroxymethyl)-N-(4-((2-methoxyethyl)amino)-5-(trifluoromethyl)pyridin-2-yl)-3,4-dihydro-1,8-naphthyridine-1(2H)-carboxamide] | > 10000 nM | 33.5 nM | > 10000 nM | 944 nM | > 10000 nM | 21 nM | 929 nM
COCCNc1cc(NC(=O)N2CCCc3cc(CN4CCS(=O)(=O)CC4=O)c(C=O)nc32)ncc1C#N [Example 150, N-(5-cyano-4-((2-methoxyethyl)amino)pyridin-2-yl)-6-((1,1-dioxido-3-oxothiomorpholino)methyl)-7-formyl-3,4-dihydro-1,8-naphthyridine-1(2H)-carboxamide] | > 10000 nM | 5.8 nM | > 10000 nM | 45.5 nM | > 10000 nM | 1.2 nM | –
N#Cc1cnc(NC(=O)N2CCCc3cc(CO)c(C=O)nc32)cc1OC1CN2CCC1CC2 (racemic) [Example 82, N-(5-cyano-4-(quinuclidin-3-yloxy)pyridin-2-yl)-7-formyl-6-(hydroxymethyl)-3,4-dihydro-1,8-naphthyridine-1(2H)-carboxamide] | > 10000 nM | 83.5 nM | > 10000 nM | – | > 10000 nM | 56 nM | 2010 nM
CN1CCC(COc2cc(NC(=O)N3CCCc4cc(CO)c(C=O)nc43)ncc2C#N)CC1 [Example 78, N-(5-cyano-4-((1-methylpiperidin-4-yl)methoxy)pyridin-2-yl)-7-formyl-6-(hydroxymethyl)-3,4-dihydro-1,8-naphthyridine-1(2H)-carboxamide] | > 10000 nM | 17 nM | > 10000 nM | – | > 10000 nM | 20 nM | 279 nM
COCCNc1cc(NC(=O)N2CCCc3cc(CN4CCSCC4=O)c(C=O)nc32)ncc1C#N [Example 149, N-(5-cyano-4-((2-methoxyethyl)amino)pyridin-2-yl)-7-formyl-6-((3-oxothiomorpholino)methyl)-3,4-dihydro-1,8-naphthyridine-1(2H)-carboxamide] | > 10000 nM | 5.3 nM | > 10000 nM | 77.5 nM | > 10000 nM | 0.1 nM | –
CN1CCN(Cc2cc3c(nc2C=O)N(C(=O)Nc2cc(NCCO)c(C#N)cn2)CCC3)C(=O)C1 [Example 197, N-(5-cyano-4-((2-hydroxyethyl)amino)pyridin-2-yl)-7-formyl-6-((4-methyl-2-oxopiperazin-1-yl)methyl)-3,4-dihydro-1,8-naphthyridine-1(2H)-carboxamide] | > 10000 nM | 19.1 nM | > 10000 nM | 146 nM | > 10000 nM | 1.2 nM | –
